In PubChem BioAssay (NCI):
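Dose response: 5 concentrations. Exposure: 48 h. Format: 96-well plates. Endpoint: linear interpolation; highest concentration if not reached. The concentration for 50% growth inhibition is given as GI50. TGI is the concentration that stops growth completely.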

Assays:
Assay in all cases: NCI anticancer screen, dose series, 48 h
786-0 renal = test system: 786-0 renal
A498 renal = test system: A498 renal
A549 NSCLC = test system: A549 NSCLC
ACHN renal = test system: ACHN renal
BT-549 breast = test system: BT-549 breast
CAKI-1 renal = test system: CAKI-1 renal
CCRF-CEM leukemia = test system: CCRF-CEM leukemia
COLO 205 colon = test system: COLO 205 colon
DU-145 prostate = test system: DU-145 prostate
EKVX NSCLC = test system: EKVX NSCLC
HCC-2998 colon = test system: HCC-2998 colon
HCT-116 colon = test system: HCT-116 colon
HCT-15 colon = test system: HCT-15 colon
HL-60(TB) leukemia = test system: HL-60(TB) leukemia
HOP-62 NSCLC = test system: HOP-62 NSCLC
HOP-92 NSCLC = test system: HOP-92 NSCLC
HS 578T breast = test system: HS 578T breast
HT29 colon = test system: HT29 colon
IGROV1 ovarian = test system: IGROV1 ovarian
K-562 leukemia = test system: K-562 leukemia
KM12 colon = test system: KM12 colon
LOX IMVI melanoma = test system: LOX IMVI melanoma
M14 melanoma = test system: M14 melanoma
MALME-3M melanoma = test system: MALME-3M melanoma
MCF7 breast = test system: MCF7 breast
MDA-MB-231 breast = test system: MDA-MB-231 breast
MDA-MB-435 = test system: MDA-MB-435
MDA-MB-468 breast = test system: MDA-MB-468 breast
MOLT-4 leukemia = test system: MOLT-4 leukemia
NCI-H226 lung = test system: NCI-H226 lung
NCI-H23 lung = test system: NCI-H23 lung
NCI-H460 lung = test system: NCI-H460 lung
NCI-H522 lung = test system: NCI-H522 lung
NCI/ADR-RES ovarian = test system: NCI/ADR-RES ovarian
OVCAR-3 ovarian = test system: OVCAR-3 ovarian
OVCAR-4 ovarian = test system: OVCAR-4 ovarian
OVCAR-5 ovarian = test system: OVCAR-5 ovarian
OVCAR-8 ovarian = test system: OVCAR-8 ovarian
PC-3 prostate = test system: PC-3 prostate
RPMI-8226 leukemia = test system: RPMI-8226 leukemia
SF-268 CNS = test system: SF-268 CNS
SF-295 CNS = test system: SF-295 CNS
SF-539 CNS = test system: SF-539 CNS
SK-MEL-2 melanoma = test system: SK-MEL-2 melanoma
SK-MEL-28 melanoma = test system: SK-MEL-28 melanoma
SK-MEL-5 melanoma = test system: SK-MEL-5 melanoma
SK-OV-3 ovarian = test system: SK-OV-3 ovarian
SN12C renal = test system: SN12C renal
SNB-19 CNS = test system: SNB-19 CNS
SNB-75 CNS = test system: SNB-75 CNS
SR leukemia = test system: SR leukemia
SW-620 colon = test system: SW-620 colon
T-47D breast = test system: T-47D breast
TK-10 renal = test system: TK-10 renal
U251 CNS = test system: U251 CNS
UACC-257 melanoma = test system: UACC-257 melanoma
UACC-62 melanoma = test system: UACC-62 melanoma
UO-31 renal = test system: UO-31 renal

Structure (SMILES): Cc1ccc(Cl)cc1NC(=O)N/C(N)=N/c1nc2ccccc2s1
- GI50 (786-0 renal): 64.1 nM
- TGI (786-0 renal): 4020 nM
- GI50 (A498 renal): 12400 nM
- TGI (A498 renal): 25800 nM
- GI50 (A549 NSCLC): 115 nM
- TGI (A549 NSCLC): 4500 nM
- GI50 (ACHN renal): 79.4 nM
- TGI (ACHN renal): 6370 nM
- GI50 (BT-549 breast): 183 nM
- TGI (BT-549 breast): 1370 nM
- GI50 (CAKI-1 renal): 45.6 nM
- TGI (CAKI-1 renal): 6660 nM
- GI50 (CCRF-CEM leukemia): 37.1 nM
- TGI (CCRF-CEM leukemia): 7470 nM
- GI50 (COLO 205 colon): 67.9 nM
- TGI (COLO 205 colon): 285 nM
- GI50 (DU-145 prostate): 47.1 nM
- TGI (DU-145 prostate): 2850 nM
- GI50 (EKVX NSCLC): 109 nM
- TGI (EKVX NSCLC): 15200 nM
- GI50 (HCC-2998 colon): 67.6 nM
- TGI (HCC-2998 colon): 1110 nM
- GI50 (HCT-116 colon): 37.1 nM
- TGI (HCT-116 colon): 696 nM
- GI50 (HCT-15 colon): 40.5 nM
- TGI (HCT-15 colon): 3000 nM
- GI50 (HL-60(TB) leukemia): 30.9 nM
- TGI (HL-60(TB) leukemia): 843 nM
- GI50 (HOP-62 NSCLC): 50.8 nM
- TGI (HOP-62 NSCLC): 2980 nM
- GI50 (HOP-92 NSCLC): 1170 nM
- TGI (HOP-92 NSCLC): 10900 nM
- GI50 (HS 578T breast): 34.3 nM
- TGI (HS 578T breast): 22700 nM
- GI50 (HT29 colon): 28.9 nM
- TGI (HT29 colon): 118 nM
- GI50 (IGROV1 ovarian): 99.2 nM
- TGI (IGROV1 ovarian): 2860 nM
- GI50 (K-562 leukemia): 34.6 nM
- TGI (K-562 leukemia): > 33900 nM
- GI50 (KM12 colon): 45.5 nM
- TGI (KM12 colon): 7120 nM
- GI50 (LOX IMVI melanoma): 61.9 nM
- TGI (LOX IMVI melanoma): 1520 nM
- GI50 (M14 melanoma): 25.6 nM
- TGI (M14 melanoma): 523 nM
- GI50 (MALME-3M melanoma): 54.4 nM
- TGI (MALME-3M melanoma): 12000 nM
- GI50 (MCF7 breast): 199 nM
- TGI (MCF7 breast): 11400 nM
- GI50 (MDA-MB-231 breast): 39.2 nM
- TGI (MDA-MB-231 breast): 278 nM
- GI50 (MDA-MB-435): 20.3 nM
- TGI (MDA-MB-435): 43.5 nM
- GI50 (MDA-MB-468 breast): 217 nM
- TGI (MDA-MB-468 breast): 650 nM
- GI50 (MOLT-4 leukemia): 60.3 nM
- TGI (MOLT-4 leukemia): 8400 nM
- GI50 (NCI-H226 lung): 187 nM
- TGI (NCI-H226 lung): 2550 nM
- GI50 (NCI-H23 lung): 45.2 nM
- TGI (NCI-H23 lung): 3570 nM
- GI50 (NCI-H460 lung): 39.1 nM
- TGI (NCI-H460 lung): 1320 nM
- GI50 (NCI-H522 lung): 24.7 nM
- TGI (NCI-H522 lung): 88.3 nM
- GI50 (NCI/ADR-RES ovarian): 23 nM
- TGI (NCI/ADR-RES ovarian): 54.9 nM
- GI50 (OVCAR-3 ovarian): 36.8 nM
- TGI (OVCAR-3 ovarian): 1330 nM
- GI50 (OVCAR-4 ovarian): 1580 nM
- TGI (OVCAR-4 ovarian): 16300 nM
- GI50 (OVCAR-5 ovarian): 131 nM
- TGI (OVCAR-5 ovarian): 4960 nM
- GI50 (OVCAR-8 ovarian): 43.8 nM
- TGI (OVCAR-8 ovarian): 2080 nM
- GI50 (PC-3 prostate): 55.1 nM
- TGI (PC-3 prostate): 11300 nM
- GI50 (RPMI-8226 leukemia): 42.5 nM
- TGI (RPMI-8226 leukemia): 6190 nM
- GI50 (SF-268 CNS): 493 nM
- TGI (SF-268 CNS): 26600 nM
- GI50 (SF-295 CNS): 29.9 nM
- TGI (SF-295 CNS): 1300 nM
- GI50 (SF-539 CNS): 22.2 nM
- TGI (SF-539 CNS): 54.7 nM
- GI50 (SK-MEL-2 melanoma): 95 nM
- TGI (SK-MEL-2 melanoma): 941 nM
- GI50 (SK-MEL-28 melanoma): 608 nM
- TGI (SK-MEL-28 melanoma): 19900 nM
- GI50 (SK-MEL-5 melanoma): 33.2 nM
- TGI (SK-MEL-5 melanoma): 136 nM
- GI50 (SK-OV-3 ovarian): 62.4 nM
- TGI (SK-OV-3 ovarian): 4730 nM
- GI50 (SN12C renal): 64.1 nM
- TGI (SN12C renal): 2440 nM
- GI50 (SNB-19 CNS): 66.5 nM
- TGI (SNB-19 CNS): 15200 nM
- GI50 (SNB-75 CNS): 125 nM
- TGI (SNB-75 CNS): 9290 nM
- GI50 (SR leukemia): 51.3 nM
- GI50 (SW-620 colon): 44.5 nM
- TGI (SW-620 colon): 14400 nM
- GI50 (T-47D breast): 1320 nM
- TGI (T-47D breast): 53200 nM
- GI50 (TK-10 renal): 4950 nM
- TGI (TK-10 renal): 16600 nM
- GI50 (U251 CNS): 37 nM
- TGI (U251 CNS): 3670 nM
- GI50 (UACC-257 melanoma): 6470 nM
- TGI (UACC-257 melanoma): 33200 nM
- GI50 (UACC-62 melanoma): 46.7 nM
- TGI (UACC-62 melanoma): 5530 nM
- GI50 (UO-31 renal): 59.3 nM
- TGI (UO-31 renal): 10200 nM
